Measured values taken from patent US10208045B2, “Aza-pyridone compounds and uses thereof” (Alios BioPharma, Inc., priority 2015, dated 2019).
pEC50, pIC50: −log10 of the molar value.

Columns and labels:
[1] = test system: Influenza strain A549_A/WSN/33 (H1N1); test: Influenza antiviral assay (neuraminidase fluorescence readout in A549 or MDCK cells); format: cell-based; settings: Influenza A virus, read-out: % Inhibition (EC50 class)
[2] = molecular target: Full length EN PA (influenza endonuclease) (Influenza A virus, UniProt P15659); test: EN PA FRET inhibition assay; format: biochemical; settings: 50 Nm FRET probe, mean of a minimum of two independent experiments, read-out: Potency (IC50 class)

CCCN1C[C@H](C(c2cccc(F)c2)c2cccc(F)c2)n2ncc(=O)c(OC(C)=O)c2C1=O (single isomer, unassigned) [Compound 1]
pEC50 [1]: > 4.70 | pIC50 [2]: > 6.60

CN1C[C@H]([C@@H](c2ccccc2)n2cc(C#CC3CC3)c(C#CC3CC3)n2)n2ncc(=O)c(O)c2C1=O (single isomer, unassigned) [Compound 13]
pEC50 [1]: > 4.70 | pIC50 [2]: > 6.60

CN1C[C@H]([C@@H](c2ccccc2)n2cc(C#CCO)c(C#CCO)n2)n2ncc(=O)c(O)c2C1=O (single isomer, unassigned) [Compound 14]
pEC50 [1]: > 4.70 | pIC50 [2]: > 6.60

CC(C)OC(=O)OCOc1c2n(ncc1=O)[C@@H](C(c1ccccc1)c1ccccc1)CN(C(C)C)C2=O [Compound 2]
pEC50 [1]: > 4.70 | pIC50 [2]: ≤ 6.00

CC(=O)Oc1c2n(ncc1=O)[C@@H](C1c3cccc(F)c3CCc3c(F)cccc31)CN(C(C)C)C2=O [Compound 3]
pEC50 [1]: > 4.70 | pIC50 [2]: > 6.60

CC(C)N1C[C@H](C(c2ccccc2)c2ccccc2)n2ncc(=O)c(O[C@@H]3OC(C(=O)O)[C@@H](O)C(O)C3O)c2C1=O (stereo partly drawn) [Compound 4]
pEC50 [1]: > 4.70 | pIC50 [2]: > 6.60

CN1CC(C(c2ccccc2)c2cn(C)c3cc(F)ccc23)n2ncc(=O)c(O)c2C1=O (stereo not drawn) [Compound 5]
pEC50 [1]: > 4.70 | pIC50 [2]: > 6.60

CCn1cc([C@@H](c2ccccc2)[C@H]2CN(C)C(=O)c3c(O)c(=O)cnn32)c2ccc(Br)cc21 [Compound 6]
pEC50 [1]: > 4.70 | pIC50 [2]: 6.00 to 6.60

CN1C[C@H]([C@@H](c2ccccc2)n2cc(I)c(I)n2)n2ncc(=O)c(O)c2C1=O [Compound 7]
pEC50 [1]: > 4.70 | pIC50 [2]: > 6.60

CN1C[C@H]([C@H](c2ccccc2)n2cc(I)c(I)n2)n2ncc(=O)c(O)c2C1=O [Compound 8]
pEC50 [1]: > 4.70 | pIC50 [2]: > 6.60

CC(C)N1C[C@H](C(c2cccs2)c2cccs2)n2ncc(=O)c(O)c2C1=O [Compound 9]
pEC50 [1]: > 4.70 | pIC50 [2]: > 6.60

O=C1NC[C@H](C(c2ccccc2)c2ccccc2)n2ncc(=O)c(O)c21 [Compound 10]
pEC50 [1]: > 4.70 | pIC50 [2]: > 6.60

C#Cc1cccc(C(c2cccc(C#C)c2)C2CN(C(C)C)C(=O)c3c(O)c(=O)cnn32)c1 (stereo not drawn) [Compound 11]
pEC50 [1]: > 4.70 | pIC50 [2]: > 6.60

CC#Cc1cn([C@@H](c2ccccc2)[C@H]2CN(C)C(=O)c3c(O)c(=O)cnn32)nc1C#CC [Compound 12]
pEC50 [1]: > 4.70 | pIC50 [2]: 6.00 to 6.60

C#Cc1cccc([C@@H](c2ccccc2)[C@H]2CN(C(C)C)C(=O)c3c(O)c(=O)cnn32)c1 [Compound 15]
pEC50 [1]: > 4.70 | pIC50 [2]: > 6.60

C#Cc1cn([C@@H](c2ccccc2)[C@H]2CN(C)C(=O)c3c(O)c(=O)cnn32)nc1C#C [Compound 16]
pEC50 [1]: > 4.70 | pIC50 [2]: > 6.60

[2H]C([2H])([2H])C([2H])(N1C[C@H](C(c2ccccc2)c2ccccc2)n2ncc(=O)c(O)c2C1=O)C([2H])([2H])[2H] [Compound 17]
pEC50 [1]: > 4.70 | pIC50 [2]: > 6.60

CCCCN1C[C@H](C(c2ccccc2)c2ccccc2)n2ncc(=O)c(O)c2C1=O [Compound 18]
pEC50 [1]: > 4.70 | pIC50 [2]: > 6.60

CCCN1C[C@H](C2c3ccccc3CCc3ccccc32)n2ncc(=O)c(O)c2C1=O [Compound 19]
pEC50 [1]: > 4.70 | pIC50 [2]: > 6.60

CCCN1C[C@@H](C2c3ccccc3CCc3ccccc32)n2ncc(=O)c(O)c2C1=O [Compound 20]
pEC50 [1]: > 4.70 | pIC50 [2]: 6.00 to 6.60

CCCN1C[C@H](C2c3cccc(F)c3CCc3c(F)cccc32)n2ncc(=O)c(O)c2C1=O [Compound 21]
pEC50 [1]: > 4.70 | pIC50 [2]: > 6.60

CCCN1C[C@@H](C2c3cccc(F)c3CCc3c(F)cccc32)n2ncc(=O)c(O)c2C1=O [Compound 22]
pEC50 [1]: > 4.70 | pIC50 [2]: ≤ 6.00

CC(C)C(=O)Oc1c2n(ncc1=O)[C@@H](C1c3ccccc3CCc3ccccc31)CN(C(C)C)C2=O [Compound 23]
pEC50 [1]: > 4.70 | pIC50 [2]: > 6.60

CC(=O)Oc1c2n(ncc1=O)[C@@H](C1c3ccccc3CCc3ccccc31)CN(C(C)C)C2=O [Compound 24]
pEC50 [1]: > 4.70 | pIC50 [2]: > 6.60

CCCN1C[C@H](C2c3ccccc3CCc3ccccc32)n2ncc(=O)c(OC(C)=O)c2C1=O [Compound 25]
pEC50 [1]: > 4.70 | pIC50 [2]: > 6.60

CCCN1C[C@H](C2c3ccccc3CCc3ccccc32)n2ncc(=O)c(OC(=O)C(C)C)c2C1=O [Compound 26]
pEC50 [1]: > 4.70 | pIC50 [2]: > 6.60

CCN1C[C@H](C2c3ccccc3CCc3ccccc32)n2ncc(=O)c(OC(C)=O)c2C1=O [Compound 27]
pEC50 [1]: > 4.70 | pIC50 [2]: > 6.60

CCN1C[C@H](C2c3ccccc3CCc3ccccc32)n2ncc(=O)c(OC(=O)C(C)C)c2C1=O [Compound 28]
pIC50 [2]: > 6.60

CCCN1C[C@H](C2c3cccc(F)c3CCc3c(F)cccc32)n2ncc(=O)c(OC(C)=O)c2C1=O [Compound 29]
pEC50 [1]: > 4.70 | pIC50 [2]: > 6.60

CC(C)OC(=O)Oc1c2n(ncc1=O)[C@@H](C1c3cccc(F)c3CCc3c(F)cccc31)CN(C(C)C)C2=O [Compound 30]
pEC50 [1]: > 4.70 | pIC50 [2]: > 6.60

CC(C)COC(=O)Oc1c2n(ncc1=O)[C@@H](C1c3cccc(F)c3CCc3c(F)cccc31)CN(C(C)C)C2=O [Compound 31]
pEC50 [1]: > 4.70 | pIC50 [2]: > 6.60

CC(C)N1C[C@H]([C@@H](c2ccccc2)n2cc(C#CC3CC3)c(C#CC3CC3)n2)n2ncc(=O)c(O)c2C1=O [Compound 33]
pEC50 [1]: > 4.70 | pIC50 [2]: 6.00 to 6.60

CC(C)N1C[C@H]([C@@H](c2ccccc2)n2cc(C#CCO)c(C#CCO)n2)n2ncc(=O)c(O)c2C1=O [Compound 34]
pEC50 [1]: > 4.70 | pIC50 [2]: > 6.60

CN1C[C@H]([C@H](c2ccccc2)n2cc(C#CC3CC3)c(C#CC3CC3)n2)n2ncc(=O)c(O)c2C1=O [Compound 35]
pEC50 [1]: > 4.70 | pIC50 [2]: ≤ 6.00

CN1C[C@H]([C@H](c2ccccc2)n2cc(C#CCO)c(C#CCO)n2)n2ncc(=O)c(O)c2C1=O [Compound 36]
pEC50 [1]: > 4.70 | pIC50 [2]: > 6.60

Cc1cccc(C(c2cccc(C)c2)[C@H]2CN(C(C)C)C(=O)c3c(O)c(=O)cnn32)c1 [Compound 37]
pEC50 [1]: > 4.70 | pIC50 [2]: > 6.60

O=C1c2c(O)c(=O)cnn2[C@@H](C(c2ccccc2)c2ccccc2)CN1Cc1ccccc1 [Compound 38]
pEC50 [1]: > 4.70 | pIC50 [2]: > 6.60

CC(C)[C@H](N)C(=O)OCOc1c2n(ncc1=O)[C@@H](C1c3cccc(F)c3CCc3c(F)cccc31)CN(C(C)C)C2=O [Compound 39]
pEC50 [1]: > 4.70 | pIC50 [2]: > 6.60

CC(C)[C@H](N)C(=O)OCOc1c2n(ncc1=O)[C@@H](C1c3ccccc3CCc3ccccc31)CN(C(C)C)C2=O [Compound 40]
pEC50 [1]: > 4.70 | pIC50 [2]: > 6.60

CC(C)OC(=O)OCOc1c2n(ncc1=O)[C@@H](C1c3cccc(F)c3CCc3c(F)cccc31)CN(C(C)C)C2=O [Compound 41]
pEC50 [1]: > 4.70 | pIC50 [2]: > 6.60

CN1C[C@H]([C@H](c2ccccc2)n2cc(C#CC3(O)CCC3)c(C#CC3(O)CCC3)n2)n2ncc(=O)c(O)c2C1=O [Compound 46]
pEC50 [1]: 4.00 to 4.70 | pIC50 [2]: 6.00 to 6.60

CCn1cc([C@@H](c2ccccc2)[C@H]2CN(C)C(=O)c3c(O)c(=O)cnn32)c2ccc(CO)cc21 [Compound 48]
pIC50 [2]: ≤ 6.00

CCn1cc([C@H](c2ccccc2)[C@H]2CN(C)C(=O)c3c(O)c(=O)cnn32)c2ccc(CO)cc21 [Compound 49]
pIC50 [2]: ≤ 6.00

CCCN1C[C@H](C(c2cccc(Cl)c2)c2cccc(Cl)c2)n2ncc(=O)c(OC(C)=O)c2C1=O [Compound 54]
pEC50 [1]: > 4.70 | pIC50 [2]: > 6.60

CCCN1C[C@H](C2c3cccc(Cl)c3CCc3c(Cl)cccc32)n2ncc(=O)c(O)c2C1=O [Compound 99]
pEC50 [1]: > 4.70 | pIC50 [2]: > 6.60

CN1C[C@H](C2c3cccc(Cl)c3CCc3c(Cl)cccc32)n2ncc(=O)c(O)c2C1=O [Compound 100]
pEC50 [1]: > 4.70 | pIC50 [2]: > 6.60

CC(C)N1C[C@H](C2c3ccc(F)cc3CCc3cc(F)ccc32)n2ncc(=O)c(O)c2C1=O [Compound 101]
pEC50 [1]: > 4.70 | pIC50 [2]: > 6.60

CCCN1C[C@H](C2c3ccc(F)cc3CCc3cc(F)ccc32)n2ncc(=O)c(O)c2C1=O [Compound 102]
pEC50 [1]: > 4.70 | pIC50 [2]: > 6.60

CC(C)N1C[C@H](C2c3ccc(Cl)cc3CCc3cc(Cl)ccc32)n2ncc(=O)c(O)c2C1=O [Compound 103]
pEC50 [1]: > 4.70 | pIC50 [2]: > 6.60

CCCN1C[C@H](C2c3ccc(Cl)cc3CCc3cc(Cl)ccc32)n2ncc(=O)c(O)c2C1=O [Compound 104]
pEC50 [1]: > 4.70 | pIC50 [2]: > 6.60

CC(=O)Oc1c2n(ncc1=O)[C@@H](C(c1cccc(Cl)c1)c1cccc(Cl)c1)CN(C(C)C)C2=O [Compound 107]
pEC50 [1]: > 4.70 | pIC50 [2]: > 6.60
